In assay [1] the test system is NF-κB pathway (SEAP) in THP1-Dual cells. Nature of the assay: THP-1 Dual cell SEAP assay (L18-MDP stimulated). It counts as cell-based. To be noted: Homo sapiens, THP1-Dual, read-out: NF-κB THP1 IC50 bin. Put shortly:
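IC50 values derive from non-linear regression of % inhibition, calculated against DMSO/L18-MDP-treated wells after media-only subtraction. NF-κB SEAP activity was read at OD 620-655 nm (QUANTI-Blue, 2 h, 37 °C) from supernatants of THP1-Dual cells. Cells had been compound-treated 30 min before overnight (20-24 h) stimulation with 10 ng/mL final L18-MDP.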

Assay [2] deals with T1, GST-RIPK2 fusion protein (human RIPK2, amino acids 1-310) (Homo sapiens, UniProt O43353).
T1 construct: made in house; host or cells: baculovirus infected Sf9 cells
Kind of assay: RIPK2 binding competition assay (TR-FRET, Tracer 199 displacement). The following applies: 10 nM Tracer 199, 1 nM GST-RIPK2, read-out: RIPK2 IC50. Put shortly:
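IC50 derived from the TR-FRET emission ratio (665/620 nm, 337 nm excitation), normalized with no-inhibitor and no-enzyme controls. Incubation 45 min at 22 °C, pH 7.5 Tris buffer, with final 10 nM tracer, 1 nM Sf9-expressed GST-RIPK2 fragment (aa 1-310) and 0.5 nM Tb-labelled anti-GST.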

The target in assay [3] is T2, binding of His-XIAP(BIR2)-avi fusion protein to GST-RIPK2 fusion protein (RIPK2/XIAP) (Homo sapiens, UniProt O43353).
T2 construct: made in house; host or cells: baculovirus infected Sf9 cells
Kind of assay: RIPK2-XIAP binding competition PPI assay (TR-FRET). To be noted: RIPK2/XIAP binding competition PPI assay; for Emax: Amax, read-out: PPI Amax bin; for IC50: read-out: PPI IC50 bin. Put shortly: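 Compounds (in DMSO, 100-fold stock) incubated 120 min at 23 °C with 1 nM GST-RIPK2 (aa 1-310) and 25 nM His-XIAP(BIR2 aa 152-231)-avi, plus anti-His-XL665 and anti-GST-Tb, in pH 7.5 Tris buffer. Read-out: 665/520 nm emission ratio. Normalized to no-inhibitor (0%) and 50 nM GSK583 (−100%); Amax binned A–D.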

A value given as a limit tells only on which side of the number the result lay.

T1 sequence (O43353 1-310): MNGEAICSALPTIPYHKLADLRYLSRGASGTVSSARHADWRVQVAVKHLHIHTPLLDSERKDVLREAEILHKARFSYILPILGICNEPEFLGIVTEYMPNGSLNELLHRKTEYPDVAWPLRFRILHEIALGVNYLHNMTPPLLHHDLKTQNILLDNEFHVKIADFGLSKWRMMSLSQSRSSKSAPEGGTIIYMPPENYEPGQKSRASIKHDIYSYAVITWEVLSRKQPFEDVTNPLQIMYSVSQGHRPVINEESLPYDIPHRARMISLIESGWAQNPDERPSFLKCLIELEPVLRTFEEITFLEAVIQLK
T2 sequence (O43353 1-310 limits assumed): as the sequence (O43353 1-310) above

As to `COc1cc2ncc(-c3cc(F)c(OC)c(NS(=O)(=O)c4cn(C)nc4C)c3)n2cc1S(=O)(=O)C(C)(C)C` [Example 279, N-(5-(6-(tert-butylsulfonyl)-7-methoxyimidazo[1,2-a]pyridin-3-yl)-3-fluoro-2-methoxyphenyl)-1,3-dimethyl-1H-pyrazole-4-sulfonamide], the IC50 in assay [1] is less than 0.05 µM; in assay [2] it was less than 0.001 µM; in assay [3] it was less than 0.001 µM. In addition, the Emax in assay [3] was greater than 80%.
As to `COc1cc2ncc(-c3cc(F)c(OC)c(NS(=O)(=O)c4cnn(C)c4C)c3)n2cc1S(=O)(=O)C(C)(C)C` [Example 280, N-(5-(6-(tert-butylsulfonyl)-7-methoxyimidazo[1,2-a]pyridin-3-yl)-3-fluoro-2-methoxyphenyl)-1,5-dimethyl-1H-pyrazole-4-sulfonamide], the IC50 was 0.05 to 0.25 µM in assay [1], 0.001 to 0.0025 µM in assay [2] and 0.001 to 0.0025 µM in assay [3]. Moreover, in assay [3], the Emax is greater than 80%.
Regarding `COc1cc2ncc(-c3cc(F)c(OC)c(NS(=O)(=O)c4ccccc4)c3)n2cc1S(=O)(=O)C(C)(C)C` [Example 281, N-(5-(6-(tert-butylsulfonyl)-7-methoxyimidazo[1,2-a]pyridin-3-yl)-3-fluoro-2-methoxyphenyl)benzenes ulfonamide], the IC50 in assay [1] was less than 0.05 µM; in assay [2], less than 0.001 µM; in assay [3], less than 0.001 µM. In addition, the Emax in assay [3] is greater than 80%.
With `COc1cc2ncc(-c3cc(F)c(OC)c(NC(=O)c4cnn(C)c4)c3)n2cc1S(=O)(=O)C(C)(C)C` [Example 296, N-(5-(6-(tert-butylsulfonyl)-7-methoxyimidazo[1,2-a]pyridin-3-yl)-3-fluoro-2-methoxyphenyl)-1-methyl-1H-pyrazole-4-carboxamide], the half-maximal inhibitory concentration (IC50) in assay [1] is greater than 1 µM; in assay [2], greater than 0.02 µM; in assay [3], greater than 0.02 µM. In addition, in assay [3], the Emax is greater than 80%.
With `COc1cc2ncc(-c3cc(F)c(OC)c(NC(=O)Cc4cnn(C)c4)c3)n2cc1S(=O)(=O)C(C)(C)C` [Example 297, N-(5-(6-(tert-butylsulfonyl)-7-methoxyimidazo[1,2-a]pyridin-3-yl)-3-fluoro-2-methoxyphenyl)-2-(1-methyl-1H-pyrazol-4-yl)acetamide], the IC50 in assay [1] lay within 0.05 to 0.25 µM; in assay [2] it was 0.001 to 0.0025 µM; in assay [3] it was 0.001 to 0.0025 µM. The Emax in assay [3] was greater than 80%.
On to `COc1cc2ncc(-c3cc(F)c(OC)c(NC(=O)Cc4ccn(C)n4)c3)n2cc1S(=O)(=O)C(C)(C)C` [Example 298, N-(5-(6-(tert-butylsulfonyl)-7-methoxyimidazo[1,2-a]pyridin-3-yl)-3-fluoro-2-methoxyphenyl)-2-(1-methyl-1H-pyrazol-3-yl)acetamide], for which the half-maximal inhibitory concentration (IC50) in assay [1] fell in the range of 0.25 to 1 µM; in assay [2], 0.0025 to 0.02 µM; in assay [3], 0.0025 to 0.02 µM. Besides, the Emax in assay [3] lay in the range of 55 to 80%.
Take `CC(C)(C)S(=O)(=O)c1cn2c(-c3cc(Cl)c(N)nc3F)cnc2cc1OCC(=O)O` [Example 299, 2-((3-(6-amino-5-chloro-2-fluoropyridin-3-yl)-6-(tert-butylsulfonyl)imidazo[1,2-a]pyridin-7-yl)oxy)acetic acid]: the IC50 was greater than 1 µM in assay [1], greater than 0.02 µM in assay [2] and greater than 0.02 µM in assay [3]. Also, the Emax in assay [3] is greater than 80%.
In the case of `COc1cc2ncc(-c3cc(F)c(OC)c(NS(=O)(=O)c4cnn(CCO)c4)c3)n2cc1C(F)(F)F` [Example 304, N-(3-fluoro-2-methoxy-5-(7-methoxy-6-(trifluoromethyl)imidazo[1,2-a]pyridin-3-yl)phenyl)-1-(2-hydroxyethyl)-1H-pyrazole-4-sulfonamide], the IC50 was greater than 1 µM in assay [1], 0.0025 to 0.02 µM in assay [2] and 0.0025 to 0.02 µM in assay [3]. In assay [3], the Emax is greater than 80%.

The values are drawn from patent US20260137706A1, “METHODS OF TREATING INFLAMMATORY DISEASES” (INTERLINE THERAPEUTICS, INC., priority 2023, published 2026).
